Experimental findings from the supplement of paper PMC10307832 are described below.

Experiment in all cases: relative viability (nuclei count vs DMSO), 5 days (fraction); higher = more cells survive
Compound in the test “VE-821 + Tozasertib”: CS(=O)(=O)c1ccc(-c2cnc(N)c(C(=O)Nc3ccccc3)n2)cc1 [VE-821] + Cc1cc(Nc2cc(N3CCN(C)CC3)nc(Sc3ccc(NC(=O)C4CC4)cc3)n2)n[nH]1 [Tozasertib] (partner 0.1 µM)
In short, it runs like this: (§1)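 Lung cancer cell lines in 1536-well plates were dosed by pin tool the day after seeding, either with one drug alone or with a fixed anchor-drug dose plus five library-drug doses (not always all listed) in √10 steps. After 5 days, cells were fixed and their nuclei stained in one step (final 0.05% Triton X-100, 1% formaldehyde, 1 ug/ml Hoechst), then counted on 4× images. Relative viability is the nuclei count in treated wells divided by that in vehicle wells. Values are medians of duplicate plates.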

Compound in the test “Vismodegib + Trametinib”: CS(=O)(=O)c1ccc(C(=O)Nc2ccc(Cl)c(-c3ccccn3)c2)c(Cl)c1 [Vismodegib] + CC(=O)Nc1cccc(-n2c(=O)n(C3CC3)c(=O)c3c(Nc4ccc(I)cc4F)n(C)c(=O)c(C)c32)c1 [Trametinib] (partner 0.02 µM)
In short, it runs like this:
as §1

Compound in the test “Vismodegib + Pemetrexed”: CS(=O)(=O)c1ccc(C(=O)Nc2ccc(Cl)c(-c3ccccn3)c2)c(Cl)c1 [Vismodegib] + Nc1nc2[nH]cc(CCc3ccc(C(=O)N[C@@H](CCC(=O)O)C(=O)O)cc3)c2c(=O)[nH]1 [Pemetrexed] (partner 0.2 µM)
Put shortly:
as §1

Compound in the test “Ruxolitinib + Dasatinib”: N#CC[C@H](C1CCCC1)n1cc(-c2ncnc3[nH]ccc23)cn1 [Ruxolitinib] + Cc1nc(Nc2ncc(C(=O)Nc3c(C)cccc3Cl)s2)cc(N2CCN(CCO)CC2)n1 [Dasatinib] (partner 0.075 µM)
Put shortly:
as §1

On to ChaGo-K-1, for which the relative viability with VE-821 + Tozasertib (first compound 0.08 µM) amounted to 0.219; with VE-821 + Tozasertib (first compound 0.253 µM), 0.248; with VE-821 + Tozasertib (first compound 0.8 µM) it was 0.219; with VE-821 + Tozasertib (first compound 2.53 µM) it was 0.201; with VE-821 + Tozasertib (first compound 8 µM) it was 0.22; with Vismodegib + Trametinib (first compound 0.08 µM) it was 0.849. Further, the relative viability is 0.904 with Vismodegib + Trametinib (first compound 0.253 µM); 0.919 with Vismodegib + Trametinib (first compound 0.8 µM); 0.781 with Vismodegib + Trametinib (first compound 2.53 µM); 0.796 with Vismodegib + Trametinib (first compound 8 µM); 0.256 with Vismodegib + Pemetrexed (first compound 0.08 µM); 0.256 with Vismodegib + Pemetrexed (first compound 0.253 µM). Further, the relative viability with Vismodegib + Pemetrexed (first compound 0.8 µM) came to 0.255; with Vismodegib + Pemetrexed (first compound 2.53 µM), 0.265; with Vismodegib + Pemetrexed (first compound 8 µM), 0.263; with Ruxolitinib + Dasatinib (first compound 0.08 µM) it was 0.631; with Ruxolitinib + Dasatinib (first compound 0.253 µM), 0.573; in the test with Ruxolitinib + Dasatinib (first compound 0.8 µM), 0.548. Besides, the relative viability with Ruxolitinib + Dasatinib (first compound 2.53 µM) came out at 0.548; with Ruxolitinib + Dasatinib (first compound 8 µM), 0.403.

For the cell line EKVX, the relative viability in the test with VE-821 + Tozasertib (first compound 0.08 µM) amounted to 0.45; with VE-821 + Tozasertib (first compound 0.253 µM), 0.346; with VE-821 + Tozasertib (first compound 0.8 µM), 0.352; with VE-821 + Tozasertib (first compound 2.53 µM) it was 0.39; with VE-821 + Tozasertib (first compound 8 µM) it was 0.309; with Vismodegib + Trametinib (first compound 0.253 µM) it was 0.392. Moreover, the relative viability with Vismodegib + Trametinib (first compound 0.8 µM) came out at 0.273; with Vismodegib + Trametinib (first compound 2.53 µM), 0.273; with Vismodegib + Trametinib (first compound 8 µM) it was 0.315; with Vismodegib + Pemetrexed (first compound 0.253 µM), 0.334; with Vismodegib + Pemetrexed (first compound 0.8 µM) it was 0.359; with Vismodegib + Pemetrexed (first compound 2.53 µM) it was 0.402. For the same cell line, the relative viability turned out to be 0.387 with Vismodegib + Pemetrexed (first compound 8 µM); 0.523 with Ruxolitinib + Dasatinib (first compound 0.08 µM); 0.603 in the test with Ruxolitinib + Dasatinib (first compound 0.253 µM); 0.481 with Ruxolitinib + Dasatinib (first compound 0.8 µM); 0.519 with Ruxolitinib + Dasatinib (first compound 2.53 µM); 0.366 in the test with Ruxolitinib + Dasatinib (first compound 8 µM).

Turning to EMC-BAC-2, the relative viability in the test with VE-821 + Tozasertib (first compound 0.08 µM) was determined as 0.344; in the test with VE-821 + Tozasertib (first compound 0.253 µM), 0.306; with VE-821 + Tozasertib (first compound 0.8 µM), 0.322; with VE-821 + Tozasertib (first compound 2.53 µM), 0.253; with VE-821 + Tozasertib (first compound 8 µM) it was 0.277; with Vismodegib + Trametinib (first compound 0.08 µM), 0.871. Further, the relative viability with Vismodegib + Trametinib (first compound 0.253 µM) is 0.847; in the test with Vismodegib + Trametinib (first compound 0.8 µM), 0.806; with Vismodegib + Trametinib (first compound 2.53 µM), 0.859; in the test with Vismodegib + Trametinib (first compound 8 µM), 0.953; with Vismodegib + Pemetrexed (first compound 0.08 µM), 0.469; with Vismodegib + Pemetrexed (first compound 0.253 µM) it was 0.442. The relative viability with Vismodegib + Pemetrexed (first compound 0.8 µM) came to 0.423; with Vismodegib + Pemetrexed (first compound 2.53 µM), 0.461; with Vismodegib + Pemetrexed (first compound 8 µM), 0.518; with Ruxolitinib + Dasatinib (first compound 0.08 µM), 0.321; with Ruxolitinib + Dasatinib (first compound 0.253 µM) it was 0.283; with Ruxolitinib + Dasatinib (first compound 0.8 µM), 0.308. Moreover, the relative viability is 0.275 in the test with Ruxolitinib + Dasatinib (first compound 2.53 µM) and 0.219 with Ruxolitinib + Dasatinib (first compound 8 µM).

EPLC-272H: the relative viability in the test with VE-821 + Tozasertib (first compound 0.08 µM) was 0.363; with VE-821 + Tozasertib (first compound 0.253 µM), 0.26; with VE-821 + Tozasertib (first compound 0.8 µM) it was 0.374; with VE-821 + Tozasertib (first compound 2.53 µM), 0.211; with VE-821 + Tozasertib (first compound 8 µM), 0.154; in the test with Vismodegib + Trametinib (first compound 0.08 µM), 0.276. Moreover, the relative viability in the test with Vismodegib + Trametinib (first compound 0.253 µM) turned out to be 0.269; with Vismodegib + Trametinib (first compound 0.8 µM), 0.246; with Vismodegib + Trametinib (first compound 2.53 µM) it was 0.282; with Vismodegib + Trametinib (first compound 8 µM), 0.297; in the test with Vismodegib + Pemetrexed (first compound 0.08 µM), 0.285; in the test with Vismodegib + Pemetrexed (first compound 0.253 µM) it was 0.418. In addition, the relative viability in the test with Vismodegib + Pemetrexed (first compound 0.8 µM) turned out to be 0.324; with Vismodegib + Pemetrexed (first compound 2.53 µM), 0.317; in the test with Vismodegib + Pemetrexed (first compound 8 µM), 0.33; in the test with Ruxolitinib + Dasatinib (first compound 0.08 µM), 0.399; with Ruxolitinib + Dasatinib (first compound 0.253 µM), 0.402; with Ruxolitinib + Dasatinib (first compound 0.8 µM), 0.42. In addition, the figures for the relative viability in the test with Ruxolitinib + Dasatinib (first compound 2.53 µM) and in the test with Ruxolitinib + Dasatinib (first compound 8 µM) were 0.243 and 0.134, respectively.

Consider H3255, for which the relative viability with VE-821 + Tozasertib (first compound 0.08 µM) was determined as 0.74; in the test with VE-821 + Tozasertib (first compound 0.253 µM), 0.777; with VE-821 + Tozasertib (first compound 0.8 µM), 0.633; with VE-821 + Tozasertib (first compound 2.53 µM) it was 0.639; in the test with VE-821 + Tozasertib (first compound 8 µM), 0.612; in the test with Vismodegib + Trametinib (first compound 0.08 µM), 0.648. The relative viability with Vismodegib + Trametinib (first compound 0.253 µM) is 0.602; in the test with Vismodegib + Trametinib (first compound 0.8 µM), 0.573; in the test with Vismodegib + Trametinib (first compound 2.53 µM) it was 0.614; with Vismodegib + Trametinib (first compound 8 µM) it was 0.668; with Vismodegib + Pemetrexed (first compound 0.08 µM), 0.56; with Vismodegib + Pemetrexed (first compound 0.253 µM) it was 0.57. The relative viability with Vismodegib + Pemetrexed (first compound 0.8 µM) is 0.532; with Vismodegib + Pemetrexed (first compound 2.53 µM) it was 0.485; in the test with Vismodegib + Pemetrexed (first compound 8 µM) it was 0.542; with Ruxolitinib + Dasatinib (first compound 0.08 µM), 0.301; with Ruxolitinib + Dasatinib (first compound 0.253 µM), 0.402; in the test with Ruxolitinib + Dasatinib (first compound 0.8 µM), 0.421. Further, the relative viability with Ruxolitinib + Dasatinib (first compound 2.53 µM) is 0.282; with Ruxolitinib + Dasatinib (first compound 8 µM), 0.31.

Regarding HARA, the relative viability with VE-821 + Tozasertib (first compound 0.08 µM) is 0.109; with VE-821 + Tozasertib (first compound 0.253 µM), 0.111; with VE-821 + Tozasertib (first compound 0.8 µM) it was 0.106; in the test with VE-821 + Tozasertib (first compound 2.53 µM), 0.112; with VE-821 + Tozasertib (first compound 8 µM) it was 0.0878; with Vismodegib + Trametinib (first compound 0.08 µM), 0.749. Also, the relative viability with Vismodegib + Trametinib (first compound 0.8 µM) worked out at 0.613; in the test with Vismodegib + Trametinib (first compound 2.53 µM), 0.689; with Vismodegib + Trametinib (first compound 8 µM) it was 0.659; in the test with Vismodegib + Pemetrexed (first compound 0.08 µM) it was 0.243; with Vismodegib + Pemetrexed (first compound 0.8 µM) it was 0.303; with Vismodegib + Pemetrexed (first compound 2.53 µM), 0.263. For the same cell line, the relative viability with Vismodegib + Pemetrexed (first compound 8 µM) worked out at 0.242; with Ruxolitinib + Dasatinib (first compound 0.08 µM), 0.224; in the test with Ruxolitinib + Dasatinib (first compound 0.253 µM) it was 0.323; with Ruxolitinib + Dasatinib (first compound 0.8 µM), 0.305; in the test with Ruxolitinib + Dasatinib (first compound 2.53 µM) it was 0.195; with Ruxolitinib + Dasatinib (first compound 8 µM), 0.22.

On to HCC-15, for which the relative viability was determined as 0.451 in the test with VE-821 + Tozasertib (first compound 0.08 µM); 0.361 in the test with VE-821 + Tozasertib (first compound 0.253 µM); 0.322 with VE-821 + Tozasertib (first compound 0.8 µM); 0.347 with VE-821 + Tozasertib (first compound 2.53 µM); 0.309 with VE-821 + Tozasertib (first compound 8 µM); 0.356 with Vismodegib + Trametinib (first compound 0.08 µM). The relative viability amounted to 0.352 with Vismodegib + Trametinib (first compound 0.253 µM); 0.345 with Vismodegib + Trametinib (first compound 0.8 µM); 0.401 with Vismodegib + Trametinib (first compound 2.53 µM); 0.383 with Vismodegib + Trametinib (first compound 8 µM); 0.215 with Vismodegib + Pemetrexed (first compound 0.08 µM); 0.215 in the test with Vismodegib + Pemetrexed (first compound 0.253 µM). In addition, the relative viability with Vismodegib + Pemetrexed (first compound 0.8 µM) was found to be 0.265; with Vismodegib + Pemetrexed (first compound 2.53 µM), 0.219; with Vismodegib + Pemetrexed (first compound 8 µM), 0.228; with Ruxolitinib + Dasatinib (first compound 0.08 µM), 0.661; with Ruxolitinib + Dasatinib (first compound 0.253 µM) it was 0.492; with Ruxolitinib + Dasatinib (first compound 0.8 µM), 0.675. Further, the relative viability in the test with Ruxolitinib + Dasatinib (first compound 2.53 µM) is 0.439; with Ruxolitinib + Dasatinib (first compound 8 µM), 0.286.
